Assay results published in US6770596B1, “Fused tricyclic compounds, process for their preparation, and herbicidal compositions containing them” (Ishihara Sangyo Kaisha Ltd., priority 2002, dated 2004).

Tests used:
Type in all cases: in vivo
[1] = tested on: soybean (Glycine max L., var. Pella 86, SOY); assay: Pre-emerge test, crop damage soybean
Text: (§1) A standard greenhouse herbicide activity screening system was used to evaluate the herbicidal efficacy and crop safety of these test compounds. Seven broadleaf weed species including redroot pigweed (Amaranthus retroflexus, AMR), velvetleaf (Abutilon theophrasti, ABT), sicklepod (Cassia obtusifolia, CAO), ivyleaf morningglory (Ipomoea hederacea, IPH), lambsquarters (Chenopodium album, CHA), common ragweed (Ambrosia artemisiifolia L., AML), and cocklebur (Xanthium strumariunt, XAS) were used as test species. Four grass weed species including green foxtail (Setaria viridis, SEV), barnyardgrass (Echinachloa crus-galli, ECC), johnsongrass (Sorghum halepense, SOH), and large crabgrass (Digitaria sanguinalis, DIS) were also used. In addition, four crop species, field corn (Zea mays L., var. Dekalb 535, CORN), soybean (Glycine max L., var. Pella 86, SOY), upland rice (Oryza sp., var.Tebonnet, RICE), and wheat (Triticum aestivum) were included all plants were grown in 10 cm square plastic pots which were filled with a sandy loam soil mix.
(§2) For pre-emerge tests, seeds were planted one day prior to application of the test compounds. All test compounds were dissolved in acetone and applied to the test pots in a volume of 187 l/ha. Test materials were applied at rates ranging from 8 g ai/ha to 1000 g ai/ha using a track sprayer equipped with a TJ8001E even flow flat fan spray nozzle. This application simulates a typical commercial field herbicide application.
(§3) At 14 days after application of the test materials, phytotoxicity ratings were recorded. A rating scale of 0-100 was used for both pre and post emerge tests as previously described in Research Methods in Weed Science, 2nd edition, B, Truelove, Ed., Southern Weed Science Society, Auburn University, Auburn, Ala., 1977. Briefly, “0” corresponds to no damage and “100” corresponds to complete death of all plants in the test unit. This scale was used both to determine efficacy against weed species and damage to crop species. Herbicide activity data for various compounds of this invention, which are shown by compound No. in Tables 1-3, are shown in Tables 5 and 6.

[2] = tested on: soybean (Glycine max L., var. Pella 86, SOY); assay: Post-emerge test, crop damage soybean
Text: as §1, §2
(§4) For post-emerge tests, seeds were planted 8-21 days prior to the test to allow emergence and good foliage development prior to application of the test substances. At the time of the post-emerge application, plants of all species were usually at the 2-3 leaf stage of development. In the postemerge test, a commercial non-ionic surfactant was also included (0.25% v/v) to enhance wetting of the leaf surfaces of target plants.
as §3

[3] = tested on: johnsongrass (Sorghum halepense, SOH); assay: Post-emerge test, johnsongrass; conditions: 250 g ai/ha, 14 days after application, rating scale 0-100 (0 no damage, 100 complete death)
Text: as §1, §2, §4, §3

[4] = tested on: sicklepod (Cassia obtusifolia, CAO); assay: Pre-emerge test, sicklepod; conditions: 250 g ai/ha, 14 days after application, rating scale 0-100 (0 no damage, 100 complete death)
Text: as §1, §2, §3

[5] = tested on: johnsongrass (Sorghum halepense, SOH); assay: Pre-emerge test, johnsongrass; conditions: 250 g ai/ha, 14 days after application, rating scale 0-100 (0 no damage, 100 complete death)
Text: as §1, §2, §3

[6] = tested on: ivyleaf morningglory (Ipomoea hederacea, IPH); assay: Post-emerge test, ivyleaf morningglory; conditions: 250 g ai/ha, 14 days after application, rating scale 0-100 (0 no damage, 100 complete death)
Text: as §1, §2, §4, §3

[7] = tested on: wheat (Triticum aestivum); assay: Post-emerge test, crop damage wheat
Text: as §1, §2, §4, §3

[8] = tested on: lambsquarters (Chenopodium album, CHA); assay: Pre-emerge test, lambsquarters; conditions: 250 g ai/ha, 14 days after application, rating scale 0-100 (0 no damage, 100 complete death)
Text: as §1, §2, §3

[9] = tested on: ivyleaf morningglory (Ipomoea hederacea, IPH); assay: Pre-emerge test, ivyleaf morningglory; conditions: 250 g ai/ha, 14 days after application, rating scale 0-100 (0 no damage, 100 complete death)
Text: as §1, §2, §3

[10] = tested on: cocklebur (Xanthium strumariunt, XAS); assay: Pre-emerge test, cocklebur; conditions: 250 g ai/ha, 14 days after application, rating scale 0-100 (0 no damage, 100 complete death)
Text: as §1, §2, §3

[11] = tested on: barnyardgrass (Echinachloa crus-galli, ECC); assay: Post-emerge test, barnyardgrass; conditions: 250 g ai/ha, 14 days after application, rating scale 0-100 (0 no damage, 100 complete death)
Text: as §1, §2, §4, §3

[12] = tested on: barnyardgrass (Echinachloa crus-galli, ECC); assay: Pre-emerge test, barnyardgrass; conditions: 250 g ai/ha, 14 days after application, rating scale 0-100 (0 no damage, 100 complete death)
Text: as §1, §2, §3

[13] = tested on: cocklebur (Xanthium strumariunt, XAS); assay: Post-emerge test, cocklebur; conditions: 250 g ai/ha, 14 days after application, rating scale 0-100 (0 no damage, 100 complete death)
Text: as §1, §2, §4, §3

[14] = tested on: sicklepod (Cassia obtusifolia, CAO); assay: Post-emerge test, sicklepod; conditions: 250 g ai/ha, 14 days after application, rating scale 0-100 (0 no damage, 100 complete death)
Text: as §1, §2, §4, §3

[15] = tested on: redroot pigweed (Amaranthus retroflexus, AMR); assay: Post-emerge test, redroot pigweed; conditions: 250 g ai/ha, 14 days after application, rating scale 0-100 (0 no damage, 100 complete death)
Text: as §1, §2, §4, §3

[16] = tested on: velvetleaf (Abutilon theophrasti, ABT); assay: Post-emerge test, velvetleaf; conditions: 250 g ai/ha, 14 days after application, rating scale 0-100 (0 no damage, 100 complete death)
Text: as §1, §2, §4, §3

[17] = tested on: wheat (Triticum aestivum); assay: Pre-emerge test, crop damage wheat
Text: as §1, §2, §3

[18] = tested on: upland rice (Oryza sp., var.Tebonnet, RICE); assay: Pre-emerge test, crop damage upland rice
Text: as §1, §2, §3

[19] = tested on: green foxtail (Setaria viridis, SEV); assay: Post-emerge test, green foxtail; conditions: 250 g ai/ha, 14 days after application, rating scale 0-100 (0 no damage, 100 complete death)
Text: as §1, §2, §4, §3

[20] = tested on: field corn (Zea mays L., var. Dekalb 535, CORN); assay: Post-emerge test, crop damage field corn
Text: as §1, §2, §4, §3

[21] = tested on: field corn (Zea mays L., var. Dekalb 535, CORN); assay: Pre-emerge test, crop damage field corn
Text: as §1, §2, §3

[22] = tested on: common ragweed (Ambrosia artemisiifolia L., AML); assay: Post-emerge test, common ragweed; conditions: 250 g ai/ha, 14 days after application, rating scale 0-100 (0 no damage, 100 complete death)
Text: as §1, §2, §4, §3

[23] = tested on: large crabgrass (Digitaria sanguinalis, DIS); assay: Post-emerge test, large crabgrass; conditions: 250 g ai/ha, 14 days after application, rating scale 0-100 (0 no damage, 100 complete death)
Text: as §1, §2, §4, §3

[24] = tested on: velvetleaf (Abutilon theophrasti, ABT); assay: Pre-emerge test, velvetleaf; conditions: 250 g ai/ha, 14 days after application, rating scale 0-100 (0 no damage, 100 complete death)
Text: as §1, §2, §3

[25] = tested on: upland rice (Oryza sp., var.Tebonnet, RICE); assay: Post-emerge test, crop damage upland rice
Text: as §1, §2, §4, §3

[26] = tested on: redroot pigweed (Amaranthus retroflexus, AMR); assay: Pre-emerge test, redroot pigweed; conditions: 250 g ai/ha, 14 days after application, rating scale 0-100 (0 no damage, 100 complete death)
Text: as §1, §2, §3

[27] = tested on: common ragweed (Ambrosia artemisiifolia L., AML); assay: Pre-emerge test, common ragweed; conditions: 250 g ai/ha, 14 days after application, rating scale 0-100 (0 no damage, 100 complete death)
Text: as §1, §2, §3

[28] = tested on: large crabgrass (Digitaria sanguinalis, DIS); assay: Pre-emerge test, large crabgrass; conditions: 250 g ai/ha, 14 days after application, rating scale 0-100 (0 no damage, 100 complete death)
Text: as §1, §2, §3

[29] = tested on: lambsquarters (Chenopodium album, CHA); assay: Post-emerge test, lambsquarters; conditions: 250 g ai/ha, 14 days after application, rating scale 0-100 (0 no damage, 100 complete death)
Text: as §1, §2, §4, §3

[30] = tested on: green foxtail (Setaria viridis, SEV); assay: Pre-emerge test, green foxtail; conditions: 250 g ai/ha, 14 days after application, rating scale 0-100 (0 no damage, 100 complete death)
Text: as §1, §2, §3

[31] = pre-emerge, 250 g ai/ha, 14 days after application, rating scale 0-100 (0 no damage, 100 complete death)
[32] = post-emerge, 250 g ai/ha, 14 days after application, rating scale 0-100 (0 no damage, 100 complete death)
[33] = var. Pella 86, Glycine max (soybean), in vivo, 14 days
[34] = Triticum aestivum (wheat), in vivo, 14 days
[35] = var. Tebonnet, Oryza sp. (upland rice), in vivo, 14 days
[36] = var. Dekalb 535, Zea mays (field corn), in vivo, 14 days

Row | SMILES | Post-emerge Herbicidal Activity SOH (phytotoxicity rating) [3] | Pre-emerge Herbicidal Activity CAO (phytotoxicity rating) [4] | Pre-emerge Herbicidal Activity SOH (phytotoxicity rating) [5] | Post-emerge Herbicidal Activity IPH (phytotoxicity rating) [6] | Pre-emerge Herbicidal Activity CHA (phytotoxicity rating) [8] | Pre-emerge Herbicidal Activity IPH (phytotoxicity rating) [9] | Pre-emerge Herbicidal Activity XAS (phytotoxicity rating) [10] | Post-emerge Herbicidal Activity ECC (phytotoxicity rating) [11] | Pre-emerge Herbicidal Activity ECC (phytotoxicity rating) [12] | Post-emerge Herbicidal Activity XAS (phytotoxicity rating) [13] | Post-emerge Herbicidal Activity CAO (phytotoxicity rating) [14] | Post-emerge Herbicidal Activity AMR (phytotoxicity rating) [15] | Post-emerge Herbicidal Activity ABT (phytotoxicity rating) [16] | Post-emerge Herbicidal Activity SEV (phytotoxicity rating) [19] | Post-emerge Herbicidal Activity AML (phytotoxicity rating) [22] | Post-emerge Herbicidal Activity DIS (phytotoxicity rating) [23] | Pre-emerge Herbicidal Activity ABT (phytotoxicity rating) [24] | Pre-emerge Herbicidal Activity AMR (phytotoxicity rating) [26] | Pre-emerge Herbicidal Activity AML (phytotoxicity rating) [27] | Pre-emerge Herbicidal Activity DIS (phytotoxicity rating) [28] | further results
1 | CCC1C(=O)Nc2c3c(cc(F)c2-n2c(=O)cc(C(F)(F)F)n(C)c2=O)OCC(=O)N31 (stereo not drawn) [1-4] | 15 | 99 | 100 | 90 | 100 | 100 | 100 | 50 | 100 | 90 | 0 | 0 | 100 | 60 | 80 | 0 | 100 | 100 | 100 | 100 | Pre-emerge crop damage SOY (phytotoxicity rating) [1, 31]: 100; Post-emerge crop damage SOY (phytotoxicity rating) [2, 32]: 60; Post-emerge crop damage WHEAT (phytotoxicity rating) [7, 32]: 25; Pre-emerge crop damage WHEAT (phytotoxicity rating) [17, 31]: 100; Pre-emerge crop damage RICE (phytotoxicity rating) [18, 31]: 99; Post-emerge crop damage CORN (phytotoxicity rating) [20, 32]: 0; Pre-emerge crop damage CORN (phytotoxicity rating) [21, 31]: 100; Post-emerge crop damage RICE (phytotoxicity rating) [25, 32]: 75; Post-emerge Herbicidal Activity CHA (phytotoxicity rating) [29]: 99; Pre-emerge Herbicidal Activity SEV (phytotoxicity rating) [30]: 100
2 | Cn1nc(-c2c(F)cc3c4c2NC(=O)CN4C(=O)CO3)c(Cl)c1C(F)(F)F [1-13, 8-[4-Chloro-1-methyl-5-(trifluoromethyl)-1H-pyrazol-3-yl]-9-fluoro-5H-pyrazino[1,2,3-de]-1,4-benzoxazine-3,6(2H, 7H)-dione] | 100 | 100 | 100 | 100 | 100 | 100 | 80 | 99 | 100 | 100 | 100 | 100 | 100 | 100 | 100 | 55 | 100 | 100 | 100 | 100 | Pre-emerge crop damage SOY (phytotoxicity rating) [1, 33]: 50; Post-emerge crop damage SOY (phytotoxicity rating) [2, 33]: 100; Post-emerge crop damage WHEAT (phytotoxicity rating) [7, 34]: 25; Pre-emerge crop damage WHEAT (phytotoxicity rating) [17, 34]: 65; Pre-emerge crop damage RICE (phytotoxicity rating) [18, 35]: 90; Post-emerge crop damage CORN (phytotoxicity rating) [20, 36]: 25; Pre-emerge crop damage CORN (phytotoxicity rating) [21, 36]: 90; Post-emerge crop damage RICE (phytotoxicity rating) [25, 35]: 99; Post-emerge Herbicidal Activity CHA (phytotoxicity rating) [29]: 100; Pre-emerge Herbicidal Activity SEV (phytotoxicity rating) [30]: 100
3 | Cn1nc(-c2c(F)cc3c4c2NC(=O)C(C)(C)N4C(=O)CO3)c(Cl)c1C(F)(F)F [1-15, 8-[4-Chloro-1-methyl-5-(trifluoromethyl)-1H-pyrazol-3-yl]-5,5-dimethyl-9-fluoro-5H-pyrazino[1,2,3-de]-1,4-benzoxazine-3,6(2H, 7H)-dione] | 55 | 100 | 100 | 100 | 100 | 100 | 100 | 99 | 100 | 100 | 99 | 100 | 100 | 99 | 98 | 50 | 100 | 100 | 100 | 100 | Pre-emerge crop damage SOY (phytotoxicity rating) [1, 33]: 50; Post-emerge crop damage SOY (phytotoxicity rating) [2, 33]: 100; Post-emerge crop damage WHEAT (phytotoxicity rating) [7, 34]: 50; Pre-emerge crop damage WHEAT (phytotoxicity rating) [17, 34]: 90; Pre-emerge crop damage RICE (phytotoxicity rating) [18, 35]: 40; Post-emerge crop damage CORN (phytotoxicity rating) [20, 36]: 35; Pre-emerge crop damage CORN (phytotoxicity rating) [21, 36]: 60; Post-emerge crop damage RICE (phytotoxicity rating) [25, 35]: 80; Post-emerge Herbicidal Activity CHA (phytotoxicity rating) [29]: 100; Pre-emerge Herbicidal Activity SEV (phytotoxicity rating) [30]: 100
